Test results: US5310728A, “Method for treating corneal endothelial wounds” (Chiron Ophthalmics, Inc., priority 1992, dated 1994)
Entries after “also recorded” stand apart in the source; their conditions may differ.

Tests used:
[1] = system: bovine corneal endothelial cells (BCEC); assay: Stimulation of BCEC DNA synthesis by recombinant peptide growth factors (tritiated thymidine); type: cell-based; details: for Relative potency as mitogen for BCEC (in words): absence of other added serum components, ten peptide growth factors compared, EGF first, TGF-α second; for Stimulation of DNA synthesis of BCEC (in words): serum-free CDM, FIG. 5
Experimental: Pure cultures of BCEC were established from freshly obtained cow eyes by trypsin treatment of the endothelial surface. Early passage cultures were trypsinized and seeded into 24 well plates as described above. After the cells had been synchronized by serum deprivation, BCEC were cultured in CDM containing tritiated thymidine and solutions of peptide growth factors produced by recombinant DNA technology. Radioactivity incorporated into DNA was measured as described previously.

fibroblasts = details: in vitro; Haigler & Carpenter 1980; cited from earlier work
[2] = system: endothelial cell division; assay: Intraocular injection of TGF-α solution in a patient with endothelium failure; type: in vivo; details: 100 μg/ml in buffered saline, 0.1 ml per injection into the anterior chamber, single or series
Experimental: A patient is diagnosed as requiring a corneal implant due to endothelium failure as a result of such conditions as Fuch's dystrophy or a marginal endothelial count either prior to or after cataract surgery. As an alternative to transplant surgery, the patient undergoes a single or series of intraocular injections of a solution of TGF-α in buffered saline. The concentration of the TFG-α is 100 μg/ml and 0.1 ml of solution are injected into the anterior chamber per injection.

epidermal growth factor [EGF]
Relative potency as mitogen for BCEC (in words) [1]: second only to EGF in potency | Minimum exposure time to induce fibroblasts to divide (fibroblasts): ≥ 6 h

multiplication stimulating activity
Stimulation of DNA synthesis of BCEC (in words) [1]: failed to stimulate DNA synthesis

nerve growth factor
Stimulation of DNA synthesis of BCEC (in words) [1]: failed to stimulate DNA synthesis

platelet-derived growth factor
Stimulation of DNA synthesis of BCEC (in words) [1]: failed to stimulate DNA synthesis

transforming growth factor alpha [TGF-α]
Relative potency as mitogen for BCEC (in words) [1]: very potent mitogen for BCEC; also recorded: potent mitogen | Effect of injections on endothelial cell division [2]: enhance endothelial cell division
